The test system of assay [1] is mice. Briefly: Tail suspension test (TST). The assay is classed as in vivo. The method, then:
(§1) All animal experiment procedures of the present disclosure were conducted in compliance with the preliminary review and ethics regulations of the Animal Experiment Ethics Committee of Daegu Haany University. 4-week-old male ICR mice (SPF/VAF CrljBgi:CD-1) were supplied from the Daehan Biolink (Chungcheongbuk-do, Korea), and adapted and used for 7 days in the pharmacology animal laboratory of Daegu Haany University. Each group consisted of 8 mice, and 5 mice were housed in polycarbonate mice cages and bred in a breeding room where a temperature of 23±1° C., humidity of 50±5%, and lighting time of 07:00 to 19:00 (12-hour cycle) were kept constant. During the adaptation period, feed and water were supplied without restrictions. […]
In order to verify whether there was an antidepressant effect of the herbal medicine complex extracts of Zizyphi spinosi Semen, Jujubae Fructus, Hordei Fructus Germinatus, Glycyrrhizae Radix et Rhizoma, Angelicae Gigantis Radix, and Beta vulgaris of the present disclosure, a tail suspension test (TST) was performed using experimental animals. The antidepressant effect was determined by measuring the immobility time during the tail suspension test, and experimental animals with tails alternated mobility and immobility, and the shorter the immobility time, there was the antidepressant effect. […]

In assay [2] the test system is mice. Briefly: Forced swimming test (FST). The assay is classed as in vivo. On the procedure:
as §1
In order to verify whether there was an antidepressant effect of the herbal medicine complex extracts of Zizyphi spinosi Semen, Jujubae Fructus, Hordei Fructus Germinatus, Glycyrrhizae Radix et Rhizoma, Angelicae Gigantis Radix, and Beta vulgaris of the present disclosure, a forced swimming test (FST) was performed using experimental animals. The antidepressant effect was determined by measuring the immobility time during the forced swimming test, and it was meant that shorter the immobility time, the greater the antidepressant effect. […]

Setting [3] is: imipramine 15 mg/kg intraperitoneally.

Take `CN(C)CCCN1c2ccccc2CCc2ccccc21` [Imipramine, imipramine]: the entries for the “immobility time compared to the control group” value in the assay with mice [1] (setting [3]) and with mice [2] (setting [3]) were “decreased” and “reduced”, respectively. The Immobility time was 157.82 ± 11.02 s with mice [1] (measured for 10 minutes, imipramine 15 mg/kg intraperitoneally for 1 week) and 177.01 ± 5.67 s with mice [2] (measured for 4 minutes, imipramine 15 mg/kg intraperitoneally for 1 week, test 30 minutes after administration on day 7).

The record behind these values is patent US12728149B2, “Pharmaceutical composition for preventing and treating depression, comprising herbal medicine complex extracts of Zizyphi spinosi Semen, Jujubae Fructus, Hordei Fructus Germinatus, Glycyrrhizae Radix et Rhizoma, Angelicae Gigantis Radix, and Beta vulgaris as active ingredients” (INDUSTRY-ACADEMIC COORPERATION FOUNDATION DAEGU HAANY …, priority 2023, dated 2026).
